{"source": "patent US20230104658A1", "about": "“METHODS OF INCREASING PROGENITOR CELL PRODUCTION” (Janssen Pharmaceutica NV, priority 2021, published 2023)", "key": {"[1]": {"system": "Myeloid progenitor cells (MPC)", "assay": "Flow cytometry of femoral bone marrow, total count/femur: myeloid progenitor cells (Example 1)", "format": "in vivo, mice", "procedure": "(§1) In this study, normal male C57BL/6 mice were subcutaneously injected with RWJ-800088 (TPOm) at 300 μg/kg (Day 0). […]\n(§2) […] After, the cell pellet was resuspended in 1X ACK lysing buffer (Lonza, 10-548E) to lyse red blood cells. The suspension was filtered through 70 μm nylon mesh and collected for further analysis.\n(§3) The bone marrow was further processed to isolate single cell populations. Then, the cells from the bone marrow and blood were subjected to flow cytometry to identify various population, including endothelial cells (EC), EPC, arterial EC, sinusoidal EC, lineage-, c-kit+, Sca-1+(LSK), megakaryocyte progenitors, short-term hematopoietic stem cell (ST-HSC), long-term HSC (LT-HSC), mesenchymal stern cell (MSC), LepR+c-mpl+MSC. The portion of blood sample was also subjected to clonogenic assay to validate the EPC population.\n(§4) The cells isolated from the bone marrow and peripheral blood were incubated with\n(§5) Live/Dead Zombie dye (Biolegend) in phosphate-buffered saline (PBS) at room temperature for 15 minutes. After, primary antibodies were diluted in 2% fetal bovine serum (FBS)-PBS solution and incubated with cells on ice for 30 minutes. Cells were washed with 2% FBS-PBS solution and incubated with secondary antibodies for 30 minutes. Cells were washed again and acquired on Cytek Aurora spectral cytometer. Analysis was done through FlowJo (Tree Star) software."}, "[2]": {"system": "Megakaryocytes", "assay": "Histology (H&E) megakaryocyte count in sternal bone marrow of healthy mice after single s.c. dose", "format": "in vivo", "procedure": "as §1\nFurther, hematopoietic stem and progenitor cell (HSPC) populations in the femoral marrow were examined by flow cytometry (FIG. 2)."}, "[3]": {"system": "Endothelial progenitor cells (EPCs)", "assay": "Flow cytometry of bone marrow ten days after treatment: EPCs (Example 2)", "format": "in vivo, mice", "details": "10 days after 300 μg/kg s.c.; percentage of CD45- cells", "procedure": "(§6) In this study, male C57BL/6 mice (8-10 weeks old) from Jackson Laboratory (Bar Harbor, Me.) were subcutaneously injected with RWJ-800088 (TPOm) at 300 μg/kg or PBS (vehicle). At day 10 after RWJ-800088 injection, the mice were sacrificed to harvest bone marrow and peripheral blood. Another set of groups was intraperitoneally injected with 5 mg/kg of plerixafor (also named AMD3100) from Sigma-Aldrich 1 hour before the sacrifice. The bone marrow was further processed to isolate single cell populations. Then, the cells from bone marrow and blood were subjected to flow cytometry to identify various populations. Bone Marrow Cell Collection\n(§7) Tibias were flushed and digested with 1 mg/mL collagenase IV (Gibco, 17104019) and 2 mg/mL dispase (Gibco, 17105041) in Hank's balanced salt solution (HBSS; Gibco, 24020117) for a total of 30 minutes at 37° C. with an inversion at 15 minutes. After, cell pellet was resuspended in lx ACK lysing buffer (Lonza, 10-548E) to lyse red blood cells. The suspension was filtered through 100 μm nylon mesh and collected for further analysis.\n(§8) The cells isolated from the bone marrow and peripheral blood were incubated with Live/Dead Zombie dye (Biolegend) in PBS at room temperature for 15 minutes. After, primary antibodies were diluted in 2% FBS-PBS solution and incubated with cells on ice for 30 minutes. […]"}, "[4]": {"system": "LSK", "assay": "Flow cytometry of femoral bone marrow, total count/femur: LSK cells (Example 1)", "format": "in vivo, mice", "details": "after treatment for 13 days", "procedure": "as §1\nas §7, with “(HB SS) (Gibco,” for “(HBSS; Gibco,”, “After, the” for “After,”, “1X” for “lx”, “70” for “100”\nas §3, §4\n(§9) Live/Dead Zombie dye (Biolegend) in phosphate-buffered saline (PBS) at room temperature for 15 minutes. After, primary antibodies were diluted in 2% fetal bovine serum (FBS)-PBS solution and incubated with cells on ice for 30 minutes. […]"}, "[5]": {"system": "Short-term HSCs", "assay": "Flow cytometry of femoral bone marrow, total count/femur: short-term HSCs (Example 1)", "format": "in vivo, mice", "details": "after treatment for 13 days", "procedure": "as §1, §2, §3, §4, §5"}, "[6]": {"system": "myeloid progenitor cells (MPCs)", "assay": "Flow cytometry of bone marrow ten days after treatment: MPCs (Example 2)", "format": "in vivo, mice", "details": "ten days after 300 μg/kg s.c.; percentage of CD45- cells", "procedure": "as §6, §7, §8"}, "[7]": {"system": "hemopoietic stem cells (HSCs)", "assay": "Flow cytometry of bone marrow ten days after treatment: HSCs (Example 2)", "format": "in vivo, mice", "details": "ten days after 300 μg/kg s.c.; percentage of CD45- cells", "procedure": "as §6, §7, §8"}, "[8]": {"system": "Long-term HSCs", "assay": "Flow cytometry of femoral bone marrow, total count/femur: long-term HSCs (Example 1)", "format": "in vivo, mice", "details": "only by day 13 after treatment", "procedure": "as §1, §2, §3, §4, §5"}, "[9]": {"system": "Endothelial cells (EC)", "assay": "Flow cytometry of femoral bone marrow, total count/femur: CD31+ endothelial cells (Example 1)", "format": "in vivo, mice", "details": "days 3 to 13 after 300 μg/kg s.c.", "procedure": "In this study, normal male C57BL/6 mice were subcutaneously injected with RWJ-800088 (TPOm) at 300 μg/kg (Day 0). At days 3, 7, 10 and 14, the mice were sacrificed to collect the bone marrow and blood samples.\nas §2, §3, §4\nLive/Dead Zombie dye (Biolegend) in phosphate-buffered saline (PBS) at room temperature for 15 minutes. After, primary antibodies were diluted in 2% fetal bovine serum (FBS)-PBS solution and incubated with cells on ice for 30 minutes. Cells were washed with 2% FBS-PBS solution and incubated with secondary antibodies for 30 minutes. […]"}, "[10]": {"system": "Endothelial progenitor cells (EPC)", "assay": "Flow cytometry of femoral bone marrow, total count/femur: endothelial progenitor cells (Example 1)", "format": "in vivo, mice", "details": "days 3 to 13 after 300 μg/kg s.c.", "procedure": "as §1\nas §7, with “(HB SS) (Gibco,” for “(HBSS; Gibco,”, “After, the” for “After,”, “1X” for “lx”, “70” for “100”\nas §3, §4, §9"}}, "note": "Square brackets hold non-standard residues; d marks the D form. 2Nal = N[C@@H](Cc1ccc2ccccc2c1)C(=O)O; Sar = CNCC(=O)O"}
{"substance": "methoxypolyethyleneglyco120000-propionyl-L-Isoleucyl-L-Glutamyl-Glycyl-L-Prolyl-L-Threonyl-L-Leucyl-L-Arginyl-L-Glutaminyl-L-2-Naphthylalanyl-L-Leucyl-L-Alanyl-L-Alanyl-L-Arginyl-Sarcosyl-Ne-(methoxypolyethyleneglyco120000-propionyl-L-Isoleucyl-L-Glutamyl-Glycyl-L-Prolyl-L-Threonyl-L-Leucyl-L-Arginyl-L-Glutaminyl-L-2-Naphthylalanyl-L-Leucyl-L-Alanyl-L-Alanyl-L-Arginyl-Sarcosyl-)-Lysinamide ({methoxypolyethyleneglycol 20000‑propionyl}-IEGPTLRQ[2Nal]LAAR[Sar]K-NH2; also: dimer: second identical mPEG20000-propionyl-peptide-Sar arm on C-terminal Lys Ne) [RWJ-800088]", "values": [{"measurement": "Myeloid progenitor cells (lineage-, c-kit+) in femoral marrow relative to naive", "setting": "[1]; day 3 after treatment", "value": "significant increases"}, {"measurement": "Myeloid progenitor cells (lineage-, c-kit+) in femoral marrow", "setting": "[1]; day 6 after treatment", "value": "significant decrease"}, {"measurement": "Myeloid progenitor cells (lineage-, c-kit+) in femoral marrow", "setting": "[1]; day 13 after treatment", "value": "return to baseline"}, {"measurement": "Number of megakaryocytes in sternal marrow", "setting": "[2]; 13 days after treatment, 300 μg/kg s.c.", "value": "dropped down to baseline"}, {"measurement": "Megakaryocytes in sternal marrow relative to naive animals", "setting": "[2]; days 3 and 6 after 300 μg/kg s.c.", "value": "significant increases"}, {"measurement": "EPC populations in the bone marrow", "setting": "[3]", "value": "significant increase"}, {"measurement": "LSK (lineage-, c-kit+, Sca-1+) population in femoral marrow", "setting": "[4]", "value": "significantly increased"}, {"measurement": "LSK, CD34+ short-term (ST-) HSC population in femoral marrow", "setting": "[5]", "value": "significantly increased"}, {"measurement": "MPC population in the bone marrow compartment", "setting": "[6]", "value": "increases"}, {"measurement": "HSC population in the bone marrow compartment", "setting": "[7]", "value": "increases"}, {"measurement": "LSK, CD34-, CD48-, CD150+ long-term (LT-) HSCs in femoral marrow", "setting": "[8]", "value": "significantly increased"}, {"measurement": "EC (CD31+) population in femoral marrow, time course", "setting": "[9]", "value": "increased beginning on day 3 and was sustained through day 13"}, {"measurement": "EPC population in femoral marrow, time course", "setting": "[10]", "value": "began increasing on day 3 with a peak on day 6"}]}
